Key:
[1] = system: PGE2 production in mouse whole blood; assay: LPS stimulated PGE2 production by mouse whole blood; type: cell-based
Description: Murine blood (C57/b16 male) was collected in heparinized collection tubes. The blood was diluted 0.5 times with cell culture medium without serum. 150 μl diluted blood was transferred into a 96-well microtiterplate. Silbinol™ was dissolved in DMSO and subsequently further diluted before adding to the cells in a concentration range of 0-25-50 μg/ml. Total amount of DMSO in the well was 0.1% DMSO. After 1 hour of preincubation of the mixture of blood cells and Silbinol™ or blood cells and 100 μM Ibuprofen™ at 37° C. in a humidified atmosphere containing 5% CO2, 1 μg/ml LPS was added and incubated for another 20 hours. Plates were centrifuged (5 minutes, 1200 rpm, SorvallRT7™) and supernatants are harvested and stored at −80° C. for further analysis.
PGE2 in the thawed supernatants was determined using the commercial enzyme immunoassay of Biotrak™ (Biotrak Amersham, Buckinghamshire, UK) according to the manufacturer's protocol 2.

hPBMCs = assay: Metabolic activity of PBMCs (succinate dehydrogenase activity); type: cell-based, human; conditions: lower dose range (Table 4), compared with PGE2 inhibition
Description: Peripheral Blood Mononuclear Cells (PBMCs) isolated from buffy coats of human blood from 3 healthy donors were stored in liquid nitrogen using standard procedures. For each experiment, PBMCs were thawed, transferred into a 50 ml centrifuge tube (BD Falcon, Erembodegem Aalst, Belgium) and cell culture medium (RPNI-1640 containing 25 mM HEPES and 2 mM L-glutamine (Life-Technologies, Merelbeke, Belgium) and further enriched with 10% heat inactivated fetal calf serum (^hiFCS), 120 U/ml penicillin/streptomycin and 1.2 mM sodium pyruvate) was added in a drop-wise fashion. Subsequently cells were centrifuged for 5 minutes at 1200 rpm (Sorvall RT7™). Cells were washed with cell culture medium (two times) and counted using a coulter counter (Beckman Coulter, Fullerton, Calif., USA). Parallel, a microscopic viability check using trypan blue is performed. PBMCs were pipetted into a 96-well flat bottom microtiterplate (BD Falcon, Brembodegem Aalst, Belgium), 1.5×10^5 cells per well. […] Metabolic activity of the PBMCs with and without the presence of test compound was determined using the succinate dehydrogenase activity.

[2] = system: PGE2 production by hPBMCs; assay: PGE2 production by LPS stimulated hPBMCs (enzyme immunoassay); type: cell-based, human; conditions: for PGE2 production / effect on PGE2 production by hPBMCs (in words): after LPS stimulation; for IC50: Homo sapiens, read-out: estimated IC50 (PGE2 production by hPBMCs after LPS stimulation)
Description: Peripheral Blood Mononuclear Cells (PBMCs) isolated from buffy coats of human blood from 3 healthy donors were stored in liquid nitrogen using standard procedures. For each experiment, PBMCs were thawed, transferred into a 50 ml centrifuge tube (BD Falcon, Erembodegem Aalst, Belgium) and cell culture medium (RPNI-1640 containing 25 mM HEPES and 2 mM L-glutamine (Life-Technologies, Merelbeke, Belgium) and further enriched with 10% heat inactivated fetal calf serum (^hiFCS), 120 U/ml penicillin/streptomycin and 1.2 mM sodium pyruvate) was added in a drop-wise fashion. Subsequently cells were centrifuged for 5 minutes at 1200 rpm (Sorvall RT7™). Cells were washed with cell culture medium (two times) and counted using a coulter counter (Beckman Coulter, Fullerton, Calif., USA). Parallel, a microscopic viability check using trypan blue is performed. PBMCs were pipetted into a 96-well flat bottom microtiterplate (BD Falcon, Brembodegem Aalst, Belgium), 1.5×10^5 cells per well. Pterostilbene (Chromadex, Santa Anna, Calif., USA), Silbinol™ (Pterocarpus marsupium plant extract containing at least 5 wt. % pterostilbene based on dried weight; Sabinsa Corporation, Piscataway, USA) and resveratrol (Sigma, St. Louis, USA) were dissolved in dimethylsulfoxide (DMSO) and subsequently further diluted in cell culture medium and added to the cells in a concentration range (see below). DMSO concentration in the wells was 0.1%. Subsequently the cells were incubated for 1 hour at 37° C. in a humidified atmosphere containing 5% CO2. After 1 hour, lipopolysaccharide (LPS, E. Coli […], […]) was added and the cells were incubated for 20 hours at 37° C. in a humidified atmosphere containing 5% CO2. The supernatants were harvested 20 hours after incubation and stored at −80° C. until further analysis. Metabolic activity of the PBMCs with and without the presence of test compound was determined using the succinate dehydrogenase activity.
Concentrations of 3.12, 6.25, 12.5, 25 and 50 μg/ml of either Pterostilbene or Silbinol™ were tested to find the dose range of inhibitory activity (Table 1 and 2). Following the determination of the dose range with PGE2 production inhibitory activity, concentrations of 0, 2, 4, 8, 16 and 32 μg/ml Silbinol™ (Table 3) and 0, 0.037, 0.11, 0.33, 1 and 3 μM pterostilbene (Table 4) were tested.
For comparative purposes, the effects 0, 0.33, 1, 3, 9 and 27 μM resveratrol on PGE2 production by hPBMCs was determined (Table 5).
PGE2 in the thawed supernatants was measured using a commercial enzyme immunoassay (Biotrak Amersham, Buckinghamshire, UK) according to the manufacturer's protocol 2.

CC(C)Cc1ccc(C(C)C(=O)O)cc1 (stereo not shown) [Ibuprofen]
PGE2 production ([1]; 100 μM, LPS stimulated mouse whole blood): 1709 pg/mL
effect on PGE2 production in mouse whole blood (in words) ([1]; LPS stimulated): inhibit PGE2 production

COc1cc(C=Cc2ccc(O)cc2)cc(OC)c1 [Pterostilbene, 4′-hydroxy-3,5-dimethoxystilbene]
metabolic activity of hPBMCs (hPBMCs): decrease, however to a much lesser extent
PGE2 production ([2]; 0.037 μM, Mean of donors A-C): 5434 pg/mL
PGE2 production ([2]; 0.037 μM, donor A): 5957 pg/mL
PGE2 production ([2]; 0.037 μM, donor B): 7788 pg/mL
PGE2 production ([2]; 0.037 μM, donor C): 2574 pg/mL
PGE2 production ([2]; 0.11 μM, Mean of donors A-C): 4494 pg/mL
PGE2 production ([2]; 0.11 μM, donor A): 5305 pg/mL
PGE2 production ([2]; 0.11 μM, donor B): 6930 pg/mL
PGE2 production ([2]; 0.11 μM, donor C): 1248 pg/mL
PGE2 production ([2]; 0.33 μM, Mean of donors A-C): 2589 pg/mL
PGE2 production ([2]; 0.33 μM, donor A): 2786 pg/mL
PGE2 production ([2]; 0.33 μM, donor B): 4782 pg/mL
PGE2 production ([2]; 0.33 μM, donor C): 199 pg/mL
PGE2 production ([2]; 1 μM, Mean of donors A-C): 1879 pg/mL
PGE2 production ([2]; 1 μM, donor A): 2067 pg/mL
PGE2 production ([2]; 1 μM, donor B): 3570 pg/mL
PGE2 production ([2]; 3 μM, Mean of donors A-C): 691 pg/mL
PGE2 production ([2]; 3 μM, donor A): 280 pg/mL
PGE2 production ([2]; 3 μM, donor B): 1794 pg/mL
PGE2 production ([2]; 3.12 μg/ml, Mean of donors A-C): 39 pg/mL
PGE2 production ([2]; 3.12 μg/ml, donor B): 117 pg/mL
PGE2 production ([2]; 6.25 μg/ml, Mean of donors A-C): 9 pg/mL
PGE2 production ([2]; 6.25 μg/ml, donor A): 28 pg/mL
PGE2 production ([2]; 12.5 μg/ml, Mean of donors A-C): 2 pg/mL
PGE2 production ([2]; 12.5 μg/ml, donor B): 5 pg/mL
PGE2 production ([2]; 25 μg/ml, Mean of donors A-C): 44 pg/mL
PGE2 production ([2]; 25 μg/ml, donor A): 63 pg/mL
PGE2 production ([2]; 25 μg/ml, donor B): 69 pg/mL
PGE2 production ([2]; 50 μg/ml, Mean of donors A-C): 269 pg/mL
PGE2 production ([2]; 50 μg/ml, donor A): 584 pg/mL
PGE2 production ([2]; 50 μg/ml, donor B): 222 pg/mL
IC50 [2]: 0.83 µM
effect on PGE2 production by hPBMCs (in words) [2]: inhibit PGE2 production

Oc1ccc(C=Cc2cc(O)cc(O)c2)cc1 [Resveratrol, resveratrol, reference compound]
IC50 [2]: 4.7 µM
PGE2 production ([2]; Table 5, 0.33 μM, Mean of donors A-C): 6717 pg/mL
PGE2 production ([2]; Table 5, 0.33 μM, donor A): 8380 pg/mL
PGE2 production ([2]; Table 5, 0.33 μM, donor B): 8060 pg/mL
PGE2 production ([2]; Table 5, 0.33 μM, donor C): 3710 pg/mL
PGE2 production ([2]; Table 5, 1 μM, Mean of donors A-C): 5601 pg/mL
PGE2 production ([2]; Table 5, 1 μM, donor A): 6835 pg/mL
PGE2 production ([2]; Table 5, 1 μM, donor B): 7369 pg/mL
PGE2 production ([2]; Table 5, 1 μM, donor C): 2597 pg/mL
PGE2 production ([2]; Table 5, 3 μM, Mean of donors A-C): 2916 pg/mL
PGE2 production ([2]; Table 5, 3 μM, donor A): 3120 pg/mL
PGE2 production ([2]; Table 5, 3 μM, donor B): 5449 pg/mL
PGE2 production ([2]; Table 5, 3 μM, donor C): 178 pg/mL
PGE2 production ([2]; Table 5, 9 μM, Mean of donors A-C): 1383 pg/mL
PGE2 production ([2]; Table 5, 9 μM, donor A): 1213 pg/mL
PGE2 production ([2]; Table 5, 9 μM, donor B): 2936 pg/mL
PGE2 production ([2]; Table 5, 27 μM, Mean of donors A-C): 1090 pg/mL
PGE2 production ([2]; Table 5, 27 μM, donor A): 913 pg/mL
PGE2 production ([2]; Table 5, 27 μM, donor B): 2355 pg/mL
effect on PGE2 production by hPBMCs (in words) [2]: inhibit PGE2 production
